Laboratory results published in patent US8394773B2, “Use of an alkyl glycoside or of a mixture of alkyl glycosides having anti-ageing and/or calming properties as active agents in cosmetic compositions, and methods of cosmetic care using said compositions” (LVMH Recherche, priority 2008, dated 2013).

Legend:
Il-8 = assay: Quantification of the release of Il-8 into culture supernatants of HaCaT keratinocytes stimulated with Il-1 beta (ELISA, related to total proteins); assay type: cell-based, human; settings: for Inhibitory activity (%) (release of Il-8) / Liberation Il-8 (%) / pg IL8/mg prot: alkyl glycoside alone at 1 μM, 24 hours; for Inhibitory activity (%) (release of Il-8) / Liberation Il-8 (%): HaCaT + Il-1 beta; for Liberation Il-8 (%): control (-) = 100; for pg IL8/mg prot: HaCaT stimulated with Il-1 beta 25 ng/ml; for anti-Il-8 activity, in words: compounds tested alone, 1 μM
Method: (§1) The release of the Il-8 and PGE2 markers into cell line culture supernatants of immortalized keratinocytes (HaCaT), stimulated for 24 hours in the presence of oligosaccharides is quantified.
(§2) HaCaTs are cultured to 80% confluence.
(§3) A treatment is carried out over 24 hours with the product to be evaluated with, in the case of Il-8 alone, a parallel stimulation with interleukin-1.
(§4) The culture supernatants containing the markers are collected and stored at −20° C. up to the day of the assay.
(§5) The assay is carried out with the aid of a kit specific for each of the markers.
The assay of human Il-8 by means of the ELISA AbC204/3 kit (Abcys).
(§6) These HaCaTs are inoculated at the rate of 10 000 cells/well (supplemented KSFM culture medium, Gibco) in a 96-well microplate.
(§7) The plate is placed in an incubator (37° C. and 5% CO2) for 24 hours.
(§8) The oligosaccharides, initially in the form of a 1 mM stock solution in DMSO, are exposed to the cells after suitable dilution in culture medium.
In parallel, for Il-8, the cells are stimulated with Il-1 beta at 25 ng/ml.
A column is treated with cholecalciferol (vitamin D3) at 0.39 μg/ml and stimulated with Il-1 beta, as positive control inhibiting the release of Il-8.
A control column is not treated and stimulated with Il-1 beta.
(§9) Each concentration of product, the positive control and the control without treatment, are evaluated on 4 or 6 wells of HaCaT.
(§10) After 24 hours of treatment, the culture supernatants are collected and stored at −20° C.
(§11) The assay is carried out according to the protocol described in each of the kits, by an immunoenzymatic test which makes it possible to assay, by spectrophotometric measurement at 450 nm, the respective quantities of Il-8 and of PGE2 present in the supernatants.
(§12) The absorbance (OD) values obtained for the 2-fold dilution series for IL-8 standard and PGE2 standard (7 concentrations, in duplicate) are plotted on a logarithmic graph.
(§13) The known concentrations of IL-8 and PGE2, expressed in pg/ml, are plotted on the x-axis and the absorbance values on the y-axis, in order to obtain a straight line.
(§14) The absorbance values measured for each sample are in turn plotted on the graph, in order to determine the respective IL-8 and PGE2 concentrations, expressed in pg/ml.
(§15) The assay (in mg/ml) of the total proteins present in the cellular pellets, after treatment or non-treatment of the HaCaTs, makes it possible to relate the assay of IL-8 and of PGE2 to the quantity of proteins in each well of cells, expressed in picograms (pg) of markers per milligram (mg) of proteins.
(§16) The absorbance values for the 6 wells are converted to mg of proteins per well of HaCaT by means of the straight line obtained by the calibration series (quantity of proteins known for an absorbance determined at 570 nm).
(§17) Finally, for each well and each treatment condition, a quantitative assay of the release of Il-8 and of PGE2 is obtained, in pg/ml.
This assay is related to a quantity of proteins, expressed in mg/ml. The final quantitative result for Il-8 is therefore expressed in pg/mg of proteins.
The percentage inhibition of the production of IL-8 is calculated as follows: […]
The test is carried out at a concentration of alkyl glycosides equal to 1 μM, after dilution in the culture medium, the negative control is pure DMSO.

PGE2 = assay: Quantification of the release of PGE2 into culture supernatants of HaCaT keratinocytes (immunoenzymatic kit, related to total proteins); assay type: cell-based; settings: for Inhibitory activity (%) (release of PGE2) / pg PGE2/mg prot / Liberation PGE2 (%): alkyl glycoside alone at 1 μM, 24 hours, HaCaT; for Liberation PGE2 (%): control (-) = 100
Method: PGE2 is an important marker of inflammatory response linked to tissue damage. It is produced by a wide variety of cells including monocytes, macrophages or keratinocytes.
as §1, §2, §3, §4, §5
Assay of PGE2 by means of the Parameter PGE2 kit (R&D system).
as §6, §7, §8
A column is treated with indomethacin as positive control inhibiting the release of PGE2.
as §9, §10, §11, §12, §13, §14, §15, §16, §17
The test is carried out at a concentration of alkyl glycosides equal to 1 μM, after dilution in the culture medium.

SMILES | Inhibitory activity (%) (release of Il-8) (Il-8) | Liberation Il-8 (%) (Il-8) | pg IL8/mg prot (Il-8) [pg/mg prot] | Inhibitory activity (%) (release of PGE2) (PGE2) | pg PGE2/mg prot (PGE2) [pg/mg prot] | Liberation PGE2 (%) (PGE2) | anti-Il-8 activity, in words (Il-8) | anti-Il-8 activity, in words (Il-8; listed as dodecyl maltotrioside) | PGE2 inhibiting activity, in words (PGE2; compounds tested alone, 1 μM)
CCCCCCCCO[C@@H]1O[C@H](CO)[C@@H](O)[C@H](O)[C@H]1O [DP1-8, n-Octyl-beta-D-glucopyranoside, reference compound] | 9.1 | 91.0 | 1121.6 | 0.3 | 312.8 | 99.7 | – | – | –
CCCCCCCCCCCCO[C@@H]1O[C@H](CO)[C@@H](O)[C@H](O)[C@H]1O [DP1-12, n-dodecyl-beta-D-glucopyranoside, reference compound] | 24.6 | 75.4 | 930.3 | 52.2 | 150.0 | 47.8 | – | – | –
CO[C@@H]1O[C@H](CO)[C@@H](O[C@H]2O[C@H](CO)[C@@H](O)[C@H](O)[C@H]2O)[C@H](O)[C@H]1O [DP2-1, methyl beta-D-maltoside] | 59.6 | 40.4 | 497.7 | 58.2 | 131.3 | 41.8 | – | – | –
CCCCCCCCO[C@@H]1O[C@H](CO)[C@@H](O[C@H]2O[C@H](CO)[C@@H](O)[C@H](O)[C@H]2O)[C@H](O)[C@H]1O [DP2-8, octyl beta-D-maltoside] | 69.4 | 30.6 | 377.7 | 37.7 | 195.5 | 62.3 | – | – | –
CCCCCCCCCCCCO[C@@H]1O[C@H](CO)[C@@H](O[C@H]2O[C@H](CO)[C@@H](O)[C@H](O)[C@H]2O)[C@H](O)[C@H]1O [DP2-12, dodecyl beta-D-maltoside] | 82.9 | 17.1 | 211.0 | 49.1 | 159.8 | 50.9 | – | – | –
CO[C@@H]1O[C@H](CO)[C@@H](O[C@H]2O[C@H](CO)[C@@H](O[C@H]3O[C@H](CO)[C@@H](O)[C@H](O)[C@H]3O)[C@H](O)[C@H]2O)[C@H](O)[C@H]1O [DP3-1, methyl beta-D-maltotrioside] | 71.9 | 28.1 | 346.6 | 49.1 | 159.6 | 50.9 | – | – | –
CCCCCCCCCCCCO[C@@H]1O[C@H](CO)[C@@H](O[C@H]2O[C@H](CO)[C@@H](O[C@H]3O[C@H](CO)[C@@H](O)[C@H](O)[C@H]3O)[C@H](O)[C@H]2O)[C@H](O)[C@H]1O [DP3-12, dodecyl beta-D-maltotrioside] | 20.1 | 79.9 | 521.5 | 18.8 | 171.8 | 81.2 | acts on both markers | very small effect on the release of Il-8 | acts on both markers
